Values quoted from earlier work in patent publication US20100331966A1, “BIOCORRODIBLE IMPLANT HAVING AN ACTIVE COATING” (priority 2009, published 2010).

System: hyperlipidemic rabbits
[1] = hyperlipidemic rabbits, repeated administration

Substance | plaque-loosening effect (rabbit, in vivo) | atheromatous vascular plaque [1] | blood cholesterol [1] | fibrin content [1] | heparin content in the plasma [1] | vascular permeability in the tissue [1]
hyaluronate lyase [bacteria hyaluronate lyase] | confirmed | – | – | – | – | –
hyaluronidase | – | significant decrease | lowering | lowering | increase | increased
